Values joined by “and” are separate entries in the source; they are usually repeats but may differ in a detail not shown here. Equal entries are not always repeated.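 1) Cells in 96-well plates. 2) Compound, 48 h, 5 concentrations. 3) Linear interpolation between surrounding doses. 4) Unreached endpoint = highest concentration. At the GI50, growth is halved. At the TGI there is no net growth.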 *1 amine or outer side, *2 acyl side, *3 side chain or, on linkers, in order; H or OH if unused. Where a SMILES comes first, the peptide text is derived from it. Bridges are numbered along the chain shown (N, C = ends). [ ]: non-standard residue; d: D form. The star is where a group is joined. Phe(3,5-F2) = N[C@@H](Cc1cc(F)cc(F)c1)C(=O)O; Pro(4R-Me) = C[C@H]1CN[C@H](C(=O)O)C1; aThr = C[C@H](O)[C@H](N)C(=O)O; Pip = O=C(O)[C@@H]1CCCCN1; X10 = Fc1cc(C2CC2)ccc1N*; Abu = CC[C@H](N)C(=O)O; CO = O=C([*:1])[*:2]

This assay has as its system MDA-MB-468 breast. Nature of the assay: NCI anticancer screen, dose series, 48 h.
In the case of `CCn1cc(C(=O)N/N=C/c2ccc(Br)cc2)c(=O)c2cc(F)c(N3CCNC(C)C3)c(F)c21` (stereo not drawn), the GI50 is 1590 nM and the TGI came out at 3090 nM.
On the same counts, the results for `COc1cc(C(C)c2ccc3c(ccn3C)c2)cc(OC)c1OC` (stereo not drawn) are less than 10 nM and 62100 nM.
On the same counts, the results for `COc1ccc(F)cc1/C=C/C(=O)/C=C(/C=C/c1cc(F)ccc1OC)OB(F)F` are 1620 nM and 4370 nM.
On the same counts, the results for `O=C(CNc1c(Cl)cccc1Cl)Nc1ccc(-c2nc3ccccc3s2)cc1` are 38.1 nM and 219 nM.
For the compound `COc1ccc(C(O)c2cc3c(N)c(C(=O)Nc4cccc(OC)c4)sc3nc2C)cc1` (stereo not drawn), the GI50 is 1230 nM and the TGI came to 4610 nM.
With `CC/C=C\C/C=C\C[C@H]1C/C=C2/C(=O)C=C[C@@H]2C/C=C\CCC(=O)O1`, the GI50 is 838 nM and the TGI turned out to be 2530 nM.
`CCC[C@H](N[C@H]1CCc2cc(F)cc(F)c2C1)C(=O)Nc1cn(C(C)(C)CNCC(C)(C)C)cn1`: the TGI was 74600 nM and 21100 nM.
Turning to `COc1cc(-c2nn(-c3ccc(NC(=O)NCCCNC(=O)c4ccccc4)cc3)cc2-c2ccncc2)ccc1Cl`, the GI50 was 284 nM and the TGI was found to be 827 nM.
Take `Cc1cc(Nc2ncc(F)c(N[C@H]3[C@@H](C(N)=O)[C@@H]4C=C[C@H]3C4)n2)ccc1N1CCN(C)CC1`: the GI50 is less than 16.1 nM and the TGI turned out to be 1260 nM.
In the same order, the values of `COc1cnc2c(c1)C(=O)c1c-2n(CCCBr)c(=O)c2cc([N+](=O)[O-])ccc12` are 291 nM and 955 nM.
In the case of `CCCCCc1c(C)[nH]c(/C=C2\N=C(c3ccc[nH]3)C=C2Oc2ccccc2)c1C`, the GI50 was 10.4 nM and the TGI was found to be 301 nM.
On the same counts, the results for `Cn1cc(C2=C(c3c4n(c5ccccc35)CCN(C(N)=S)C4)C(=O)NC2=O)c2ccccc21` are 3350 nM and more than 21000 nM.
In the same order, the values of `FC(F)(F)CNc1nccc(-c2cnn3ncccc23)n1` are 8490 nM and more than 25000 nM.
In the same order, the values of `O=C(O)c1sccc1O` are 32900 nM and more than 100000 nM.
With `C[C@]12CC[C@H](OC3OC(O)C(O)C(O)C3O)C=C1CCC1C2CC[C@]2(C)[C@@H](c3ccc(=O)oc3)CC[C@]12O` (stereo partly drawn), the GI50 was 3.79 nM and 5.12 nM; the TGI was 20.2 nM and 14.5 nM.
For the compound `CC(C)=NNc1ncnc2c1ncn2C1OC(CO)C(O)C1O` (stereo not drawn), the GI50 is 499 nM and the TGI was determined as 3900 nM.
In the same order, the values of `O=C(Nc1ccc(Oc2cccc(Cl)c2)c(Cl)c1)c1cnccn1` are 255 nM and more than 15800 nM.
In the same order, the values of `COc1cc(OC)cc(C2C(C#N)=C(N)Oc3c2ccc2ccc(O)cc32)c1` (stereo not drawn) are less than 10 nM and 980 nM.
On to `N=C1S/C(=C/c2ccc(-c3ccc4c(c3)C(=O)NC4=O)o2)C(=O)N1c1ccc(Br)cc1`, for which the GI50 is 4570 nM and the TGI is more than 100000 nM.
In the same order, the values of `ClC1=C(Cl)C(Cl)=C(Cl)C1=Cc1ccccc1` are 1310 nM and 2690 nM.
On the same counts, the results for `CC[C@@H]1NC(=O)[C@@H]2CCCCN2C(=O)[C@@H]2CCCN2C(=O)[C@@H](NC(=O)[C@H](Cc2cc(F)cc(F)c2)NC(=O)Nc2ccc(C3CC3)cc2F)[C@H](C)OC(=O)[C@@H]2C[C@@H](C)CN2C1=O` ({X10-CO}-[Phe(3,5-F2)][aThr]P[Pip][Abu][Pro(4R-Me)]; ester 2-C) are 26.7 nM and 149 nM.
As for `CCN(CC)c1ccc2c(cc1=O)[C@@H](NC(C)=O)CCc1cc(OC)c(OC)c(OC)c1-2`, the GI50 was 130 nM.
In the case of `FC(F)(F)c1ccc(CNc2ccc(Cc3c[nH]c4ncc(Cl)cc34)cn2)cn1`, the GI50 is 5100 nM and 3770 nM; the TGI is 34400 nM and > 10000 nM.
For the compound `Cc1ccc(C)c(COc2cc(NC(=O)c3ccc4c(c3)OCO4)ccc2N(C)S(C)(=O)=O)c1`, the GI50 was 114 nM and the TGI stood at 440 nM.
In the same order, the values of `O=[N+]([O-])c1ccc2scc3c4ccccc4nc-3c2c1` are 919 nM and 2250 nM.
For the compound `O=C1Nc2ccccc2C1(c1c[nH]c2ccccc12)c1c[nH]c2ccccc12`, the GI50 is 2080 nM and the TGI was 4560 nM.
In the same order, the values of `Cc1nc2ccccc2c(/C=C/c2ccc(Cl)cc2)c1C(=O)/C=C/c1ccc(F)cc1` are 1800 nM and 3730 nM.
Regarding `c1ccc(CSc2nnc3c4c5c(sc4nc(-c4cccnc4)n23)CCCCCC5)cc1`, the GI50 was 568 nM and the TGI stood at 4120 nM.
In the same order, the values of `O=c1[nH]c2ccc(N=Cc3c(O)[nH]c4ccccc34)cc2[nH]1` are more than 25000 nM and more than 25000 nM.
On the same counts, the results for `COc1cccc2cc(N(C)c3ncnc4ccccc34)ccc12` are less than 10 nM and 4740 nM.
Regarding `COCCNCCc1cccc(Nc2ncc3c(n2)-c2ccccc2C(c2ccccc2F)C3)c1` (stereo not drawn), the GI50 is 1900 nM and 2000 nM; the TGI is 3700 nM and 3860 nM.
In the case of `Oc1ccc(CCl)c2cccnc12`, the GI50 was 3390 nM and the TGI came to 54300 nM.
`CC(=O)Nc1ccc2c(C3=C(c4cn(C)c5ccccc45)C(=O)NC3=O)cn(C)c2c1`: the GI50 is 988 nM and the TGI was more than 7220 nM.
In the same order, the values of `O=C(NC1CCC(Br)CC1)C1CCCC(S(=O)(=O)NC2CCCCC2)C1` (stereo not drawn) are 6440 nM and 24900 nM.
On to `Nc1c(C(=O)Nc2ccccn2)sc2nc3c(cc12)CCCCC3`, for which the GI50 is 1050 nM and the TGI was more than 50000 nM.

The values above are taken from PubChem BioAssay (NCI).
